Consider one substance from patent publication US20130157285A1, “IDENTIFICATION OF INVASIVE AND SLOW-GROWING TUMORIGENIC CELL SUBSETS IN TUMORS” (The Regents of the University of California, priority 2011, published 2013).

For data set [1], the system named is xenografts of MDA-MB-231 cells. Nature of the data set: Targeting of HA-based probes in tumor model. The data set is classed as in vivo. The note with it: radiolabel, magnetic resonance and fluorescence labels. The text has this:
(§1) We evaluated the targeting ability of HA-based probes in several modalities (radiolabel, magnetic resonance, and fluorescence) to areas of microenvironment remodeling that are associated with both tissue injury and tumor formation. We chose well-characterized rat balloon injured carotid arteries as a response to injury model, and xenografts of MDA-MB-231 cells as a tumor model.

The subject of data set [2] is MDA-MB-231. Nature of the data set: Inhibition of HA probe uptake, confocal imaging. The data set is classed as cell-based, human. The following applies: excess HA added either during or prior to addition of HA probe.
Data set [3] deals with MCF-7. Description: Fluorescent HA probe binding by flow cytometry (FACS). The class given is cell-based, human. The following applies: Table 1, HA probe binding/uptake. The text has this:
(§2) Simultaneous profiling of cell surface markers and HA binding/uptake required the establishment of a sensitive multiplexed detection method, which could detect both the cell surface receptors and the binding/uptake of ligand (HA). We utilized fluorescence-activated cell sorting (FACS) and established protocols for minimum decoration of cells by antibodies and HA, maximum detection sensitivity at the cell surface, and retained viability/functionality during and after sort. Fluorescent HA probes and antibodies were synthesized and characterized in a panel of human breast cancer cell lines (MDA-MB-231, SUM1315MO2, HS-578T, MDA-MB-468, HCC-1569, BT-20, MCF-10A, S1, T4-2, MCF-7, BT474, SK-BR3, AU565, MDA-MB-361, D920, SK3 [RHAMM−/− and CD44−/− were used as negative controls], and 10T½ [RHAMM+/+ were used as positive controls]). In brief, soluble HA (280,000 dalton) was linked to hydrazide-activated fluorochromes and monoclonal antibodies were directly conjugated to tetrafluorophenyl (TFP) ester activated fluorochromes (Alexa Fluor 647 and sometimes to Alexa Fluor 488) and reacted with the live cells under sterile dark conditions. Four fluorochromes were selected in a manner that provided minimal fluorescent spectral overlaps and maximal brightness for low-expressing markers, which allowed sensitive monitoring of subtle changes in marker expression and HA binding capacity in live cells. Near infrared fluorescence range was selected for HA to extend signal stability during multiple stages of characterizations (Alexa Fluor 647). […] As well, these appeared to non-specifically interact with each other and with cells, which would require extensive characterization and optimization. Therefore, we continued our study using minimally-decorated HA and antibodies by fluorochromes, as described below, and successfully profiled multiple cell surface markers.
(§3) (1) Grow cells to 50% confluence on culture flask; (2) Rinse in Ca^2+-free Hank's Buffered Saline Solution (HBSS/20 mM HEPES, pH 7.3); (3) Harvest cells with non-enzymatic HBSS-based cell dissociation solution; (4) Resuspend in cold and sterile PBS solution that contains Antibiotic, HEPES pH 7.4, Insulin, and Transferrin (PBS/additive solution); (5) Centrifuge and eliminate supernatant; (6) Wash in cold PBS/additive solution; (7) Count cells using cell counter instrument and measure viability; (8) Treat cells (in suspension) with Alexa Flour 647-HA; (9) Incubate for 45 min on ice, in dark.
(§4) For single-color HA-binding flow cytometry: (a) wash the cells, eliminate supernatant and adjust concentration of solution appropriate for flow cytometry and (b) perform live cell flow cytometry immediately.
(§5) Cells were grown to 50%-70% confluence in 75 cm^2 culture flasks in DMEM supplemented with 10% FCS at 37° C. and 5% CO2, then subcultured every 3-4 days. For HA uptake experiments, cells were grown to 50% subconfluence, which was achieved 12-20 hrs after subculture, in order to maximize RHAMM surface display. Cells were rinsed in Ca++-free Hanks Buffered Saline (HBSS) solution/20 mM HEPES, pH 7.3, and removed from the substratum by incubating in non-enzymatic HBSS-based solution (Sigma-Aldrich[H-6648]) for 2-3 min, which preserves cell surface epitopes (Veiseh M, et al, Biomacromolecules 2012, Hamilton S. R. et al, JBC, 2007). Viablity of cells was assessed using a Vi_CELL cell analyzer.
(§6) 0.2 ml of soluble HA (1% HA, MWav=280,000 dalton) was activated in 1 ml of a (0.0028 g/1 ml MES) N-(3-Dimethylaminopropyl)-N′-ethylcarbodiimide hydrochloride (EDAC) solution (Sigma-Aldrich) in 4-morpholineethanesulfonic acid (MES) (20 mM, pH 4.5, Sigma-Aldrich), and the resulting solution was reacted with 0.3 ml of A^647-HA hydrazide, tris(triethylammonium) salt (Invitrogen, 1 mg/ml in H2O) in the dark at RT. The solution was covered in aluminum foil and placed on a rocker for 12 hrs at room temperature. […]
In general terms: Flow cytometry measures light scatter and fluorescence of single cells or particles in a stream.

The subject of data set [4] is T4-2. The data set is described as above. The data set is classed as cell-based, human.
Excerpt: as §2, §3, §4, §5, §6

Data set [5] has as its system MCF-10A. The data set is described as above. The class given is cell-based, human. The note with it: Table 1, HA probe binding/uptake.
Excerpt: as §2, §3, §4, §5, §6

For data set [6], the system named is S1. Described as above. The class given is cell-based, human. The note with it: Table 1; SI (S1); HA probe binding/uptake.
Excerpt: as §2, §3, §4, §5, §6

The subject of data set [7] is MDA-MB-231. The description is as above. The class given is cell-based, human.
Excerpt: as §2, §3, §4, §5, §6

In data set [8] the test system is SKBR-3. The data set is described as above. The class given is cell-based, human.
Excerpt: as §2, §3, §4, §5, §6

In data set [9] the test system is MDA-MB-231 tumor cells. Nature of the data set: Extravasation efficiency in chick chorioallantoic membrane (CAM). The data set is classed as in vivo, chicken embryos. The note with it: 24 hrs after injection into CAM vein; cells pre-treated with HA for 1 hour on ice. The procedure:
Fertilized chicken eggs were incubated in a rotary incubator at 37° C. with 90% humidity for 4 days before being removed from the shell and placed in covered dishes and incubated at 37° C. with 90% humidity until usage (PMID:20671724). On day 13 of embryonic development, 7.5×10^4 tumor cells in 100 μL PBS were intravenously injected into a vein within the chorioallantoic membrane (CAM, N=5 each group) (PMID-20671724). Prior to injection, cancer cells were pre-treated with HA (100 mg/ml) or vehicle (PBS) for 1 hour on ice. […] At least 200 cells for each ROI at T=0 was analyzed and enumerated.
Extravasated tumor cells can be observed in interstitial spaces 24-72 hrs after their injection into CAM veins but by this time cell bound F-HA is not detectable since it has been metabolized (FIG. 22B). To determine if F-HA promotes extravasation of dt-Tomato expressing tumor cells, we therefore simply measured the number of extravasated tumor cells at varying times after injection with or without unlabeled HA, used at the same concentration and polydispersity as F-HA, with intravial confocal imaging (FIG. 22C-D). […] We next determined if exposing tumor cells to HA increased extravasation, choosing 24 hrs after injection rather than 72 hrs shown in FIG. 22C to reduce the contribution of proliferation to appearance of extravascular tumor colonies. […]

The conditions of data set [10]: data obtained from Hyal Corporation, cited from earlier work.
Data set [11] in a line: Targeting of HA-based probes in response-to-injury model. The class given is in vivo, rat. The note with it: radiolabel, magnetic resonance and fluorescence labels.
Excerpt: as §1

The mark [12] stands for this setting: Table 1, HA probe binding/uptake.

For hyaluronan [HA], in data set [1], the “targeting of HA-based probes to tumor tissue” value was “selective targeting”. Moreover, in data set [2], the “effect on signal of HA probe uptake” value is reported as “reduced”. For the same substance, the HA binding result is “Low” in data set [3]; “High” in [4] (setting [12]); “Medium” in [5]; “Medium” in data set [6]; “Very high” in [7] (setting [12]); “Low” in data set [8] (setting [12]). The figures for the HA binding level entry in data set [4] (Table 6), in [7] (Table 6) and in data set [8] (Table 6) were “HA^2+”, “HA^4+” and “HA^+”, respectively. Also, in [9], the “extravasation efficiency of tumor cells exposed to HA vs untreated cells” value is reported as “twice”. The “tolerability of HA injected I.V.” value in data set [10] (I.V. 1-12 mg/kg) is “well tolerated”. In addition, the “T½ from HA serum levels” value in [10] (I.V., 1.5 mg/kg dose) was 12 h. Further, the “targeting of HA-based probes to injured tissue” value in data set [11] is recorded as “selective targeting”.
